From PubChem BioAssay (NCI)
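Following 48 hours of exposure in 96-well plates, responses at five concentrations were used to interpolate endpoints linearly. TGI: total growth inhibition.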

Key:
Assay in all cases: inhibition of tumour cell growth, NCI panel, 48 h
[1] = system: ACHN renal
[2] = system: SF-295 CNS
[3] = system: NCI-H23 lung
[4] = system: SF-268 CNS
[5] = system: OVCAR-3 ovarian
[6] = system: MDA-MB-231 breast
[7] = system: NCI-H460 lung
[8] = system: A549 NSCLC
[9] = system: HT29 colon
[10] = system: OVCAR-4 ovarian
[11] = system: OVCAR-5 ovarian
[12] = system: DU-145 prostate
[13] = system: MALME-3M melanoma
[14] = system: IGROV1 ovarian
[15] = system: EKVX NSCLC
[16] = system: LOX IMVI melanoma
[17] = system: PC-3 prostate
[18] = system: OVCAR-8 ovarian
[19] = system: NCI-H226 lung
[20] = system: SN12C renal
[21] = system: HCT-116 colon
[22] = system: T-47D breast
[23] = system: U251 CNS
[24] = system: MDA-N
[25] = system: MDA-MB-435
[26] = system: HS 578T breast
[27] = system: RPMI-8226 leukemia
[28] = system: COLO 205 colon
[29] = system: CAKI-1 renal
[30] = system: RXF 393 renal
[31] = system: SK-MEL-5 melanoma
[32] = system: SF-539 CNS
[33] = system: TK-10 renal
[34] = system: MOLT-4 leukemia
[35] = system: NCI/ADR-RES ovarian
[36] = system: SW-620 colon
[37] = system: M14 melanoma
[38] = system: UACC-62 melanoma
[39] = system: SK-MEL-2 melanoma
[40] = system: HL-60(TB) leukemia
[41] = system: SK-OV-3 ovarian
[42] = system: HOP-62 NSCLC
[43] = system: SK-MEL-28 melanoma
[44] = system: MCF7 breast
[45] = system: SR leukemia
[46] = system: HCT-15 colon
[47] = system: NCI-H522 lung
[48] = system: K-562 leukemia
[49] = system: UACC-257 melanoma
[50] = system: 786-0 renal
[51] = system: KM12 colon
[52] = system: CCRF-CEM leukemia
[53] = system: SNB-75 CNS
[54] = system: A498 renal
[55] = system: HOP-92 NSCLC
[56] = system: HCC-2998 colon
[57] = system: UO-31 renal
[58] = system: SNB-19 CNS

COc1cc2c(c(OC)c1OC)-c1ccc(OC)c(=O)cc1C(NC(=O)CCCCCNc1ccc(N=[N+]=[N-])cc1[N+](=O)[O-])CC2 (stereo not drawn)
TGI [1]: 24.4 µM
TGI [2]: 12.5 µM
TGI [3]: > 100 µM
TGI [4]: 10.3 µM
TGI [5]: < 0.0152 µM
TGI [6]: < 0.01 µM
TGI [7]: < 0.0139 µM
TGI [8]: 5.8 µM
TGI [9]: < 0.01 µM
TGI [10]: 16.2 µM
TGI [11]: 31.4 µM
TGI [12]: 0.354 µM
TGI [13]: 26.1 µM
TGI [14]: > 31.6 µM
TGI [15]: 0.644 µM
TGI [16]: 9.55 µM
TGI [17]: < 0.01 µM
TGI [18]: > 100 µM
TGI [19]: < 0.01 µM
TGI [20]: 11.5 µM
TGI [21]: < 0.0105 µM
TGI [22]: > 31.6 µM
TGI [23]: 11.1 µM
TGI [24]: < 0.01 µM
TGI [25]: < 0.01 µM
TGI [26]: 4.67 µM
TGI [27]: < 0.01 µM
TGI [28]: < 0.01 µM
TGI [29]: 18.4 µM
TGI [30]: 6.67 µM
TGI [31]: < 0.01 µM
TGI [32]: < 0.01 µM
TGI [33]: 57.8 µM
TGI [34]: < 0.01 µM
TGI [35]: 5.62 µM
TGI [36]: > 31.6 µM
TGI [37]: 5.44 µM
TGI [38]: < 0.01 µM
TGI [39]: < 0.01 µM
TGI [40]: < 0.01 µM
TGI [41]: 7.17 µM
TGI [42]: > 31.6 µM
TGI [43]: 25 µM
TGI [44]: > 21.6 µM
TGI [45]: < 0.01 µM
TGI [46]: 0.245 µM

O=C1C2CCCC2N1Cc1ccccc1 (stereo not drawn)
TGI [1]: > 100 µM
TGI [2]: > 100 µM
TGI [3]: > 100 µM
TGI [4]: > 100 µM
TGI [47]: > 100 µM
TGI [5]: > 100 µM
TGI [7]: > 100 µM
TGI [9]: > 100 µM
TGI [10]: > 100 µM
TGI [11]: > 100 µM
TGI [12]: > 100 µM
TGI [14]: > 100 µM
TGI [15]: > 100 µM
TGI [16]: > 100 µM
TGI [18]: > 100 µM
TGI [19]: > 100 µM
TGI [20]: > 100 µM
TGI [48]: > 100 µM
TGI [49]: > 100 µM
TGI [21]: > 100 µM
TGI [22]: > 100 µM
TGI [50]: > 100 µM
TGI [24]: > 100 µM
TGI [51]: > 100 µM
TGI [25]: > 100 µM
TGI [26]: > 100 µM
TGI [27]: > 100 µM
TGI [28]: > 100 µM
TGI [29]: > 100 µM
TGI [30]: > 100 µM
TGI [52]: > 100 µM
TGI [31]: > 100 µM
TGI [32]: > 100 µM
TGI [33]: > 100 µM
TGI [53]: > 100 µM
TGI [54]: > 100 µM
TGI [34]: > 100 µM
TGI [35]: > 100 µM
TGI [55]: > 100 µM
TGI [36]: > 100 µM
TGI [37]: 26.9 µM
TGI [56]: > 100 µM
TGI [38]: > 100 µM
TGI [40]: > 100 µM
TGI [41]: > 100 µM
TGI [42]: > 100 µM
TGI [57]: 28.5 µM
TGI [44]: > 100 µM
TGI [46]: > 100 µM

CC1=C/C(=N\NS(=O)(=O)c2ccc([N+](=O)[O-])cc2)CC(C)(C)C1
TGI [1]: > 100 µM
TGI [2]: > 100 µM
TGI [3]: > 100 µM
TGI [4]: > 100 µM
TGI [47]: > 100 µM
TGI [5]: > 100 µM
TGI [6]: > 100 µM
TGI [7]: > 100 µM
TGI [8]: > 100 µM
TGI [11]: > 100 µM
TGI [12]: > 100 µM
TGI [13]: > 100 µM
TGI [14]: > 100 µM
TGI [15]: > 100 µM
TGI [16]: > 100 µM
TGI [17]: > 100 µM
TGI [18]: > 100 µM
TGI [20]: > 100 µM
TGI [48]: > 100 µM
TGI [49]: > 100 µM
TGI [21]: > 100 µM
TGI [22]: > 100 µM
TGI [50]: > 100 µM
TGI [23]: > 100 µM
TGI [24]: > 100 µM
TGI [51]: > 100 µM
TGI [25]: > 100 µM
TGI [58]: > 100 µM
TGI [27]: > 100 µM
TGI [28]: > 100 µM
TGI [29]: > 100 µM
TGI [30]: > 100 µM
TGI [52]: > 100 µM
TGI [31]: > 100 µM
TGI [32]: > 100 µM
TGI [33]: > 100 µM
TGI [54]: > 100 µM
TGI [34]: > 100 µM
TGI [35]: > 100 µM
TGI [55]: 75.6 µM
TGI [36]: > 100 µM
TGI [37]: > 100 µM
TGI [56]: > 100 µM
TGI [38]: > 100 µM
TGI [39]: > 100 µM
TGI [40]: > 100 µM
TGI [41]: > 100 µM
TGI [42]: > 100 µM
TGI [57]: > 100 µM
TGI [43]: > 100 µM
TGI [44]: > 100 µM
TGI [45]: > 100 µM
TGI [46]: > 100 µM
